The supplement of paper PMC10307832

Assays:
Assay in all cases: relative viability (nuclei count vs DMSO), 5 days (fraction); higher = more cells survive
[1] = compound: CC1=CC(=NN1)NC2=CC(=NC(=N2)/C=C/C3=CC=CC=C3)N4CCN(CC4)C + Nc1ncn([C@H]2C[C@H](O)[C@@H](CO)O2)c(=O)n1 [Decitabine] (partner 2 µM)
Method in brief: (§1)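 Nuclei were stained with Hoechst during a one-step fixation (final 0.05% Triton X-100, 1% formaldehyde, 1 ug/ml Hoechst) carried out 5 days after dosing, then counted on 4× images. The cells, lung cancer lines in 1536-well plates, had been dosed by pin tool the day after seeding with one drug alone or a fixed anchor-drug dose plus five library-drug doses (not always all listed) in √10 steps. Relative viability is the nuclei count in treated wells divided by that in vehicle wells, and each value is the median of duplicate plates.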

[2] = compound: COC1=CC(c2cc3ccccc3[nH]2)=N/C1=C\c1[nH]c(C)cc1C [Obatoclax] + Cc1cc(Nc2cc(N3CCN(C)CC3)nc(Sc3ccc(NC(=O)C4CC4)cc3)n2)n[nH]1 [Tozasertib] (partner 0.1 µM)
Method in brief: as §1

[3] = compound: CC(C)C[C@H](NC(=O)[C@H](Cc1ccccc1)NC(=O)c1cnccn1)B(O)O [Bortezomib] + C[C@@H](Oc1cc(-c2cnn(C3CCNCC3)c2)cnc1N)c1c(Cl)ccc(F)c1Cl [Crizotinib] (partner 1 µM)
Method in brief: as §1

[4] = compound: COC1=CC(c2cc3ccccc3[nH]2)=N/C1=C\c1[nH]c(C)cc1C [Obatoclax] + CC(C)C[C@H](NC(=O)[C@H](Cc1ccccc1)NC(=O)c1cnccn1)B(O)O [Bortezomib] (partner 0.002 µM)
Method in brief: as §1

Cell Line	relative viability ([1]; first compound 0.08 µM)	relative viability ([1]; first compound 0.253 µM)	relative viability ([1]; first compound 0.8 µM)	relative viability ([1]; first compound 2.53 µM)	relative viability ([1]; first compound 8 µM)	relative viability ([2]; first compound 0.01 µM)	relative viability ([2]; first compound 0.03162 µM)	relative viability ([2]; first compound 0.1 µM)	relative viability ([2]; first compound 0.3162 µM)	relative viability ([2]; first compound 1 µM)	relative viability ([3]; first compound 0.0002 µM)	relative viability ([3]; first compound 0.000632 µM)	relative viability ([3]; first compound 0.002 µM)	relative viability ([3]; first compound 0.006325 µM)	relative viability ([3]; first compound 0.02 µM)	relative viability ([4]; first compound 0.01 µM)	relative viability ([4]; first compound 0.03162 µM)	relative viability ([4]; first compound 0.1 µM)	relative viability ([4]; first compound 0.3162 µM)	relative viability ([4]; first compound 1 µM)
NCI-H2342	0.753	0.774	0.662	0.703	0.641	0.516	0.594	0.656	0.587	0.633										
HCC-827	0.196	0.353	0.337	0.285	0.189	0.389	0.418	0.44	0.412	0.411	0.915	0.837	0.783	0.251	0.116	0.928	0.861	0.821	0.855	1.04
NCI-H322M	0.82	0.719	0.675	0.587	0.298	0.505	0.451		0.463	0.344	0.977		0.99	0.985	0.36	1.13	1.21	1.41	1.16	1.34
ChaGo-K-1	0.509	0.587	0.465	0.383	0.21	0.247	0.24	0.243	0.24	0.235			1.11	0.304	0.236	1.11	0.949		0.968	1.23
BEN	0.633	0.835	0.706	0.381	0.337	0.491	0.467		0.626	0.506	0.78	0.821	0.58	0.447	0.134	0.826	0.735	0.356	0.734	0.838
NCI-H2347	0.606	0.636	0.561	0.549	0.394	0.504	0.684		0.549	0.423	0.657	0.582	0.348	0.291	0.298	0.935	0.859	1.07		0.95
LOU-NH91	0.793	0.856	0.807	0.809	0.473	0.658	0.655	0.513	0.598	0.489	0.749	0.708	0.342	0.314	0.319	0.531	0.435		0.367	0.441
NCI-H2228						0.278	0.318	0.29	0.257	0.21	0.521	0.482	0.376	0.166	0.163	0.96	1.01	1.25	0.626	0.367
NCI-H358	0.227	0.188	0.184	0.0835	0.0684	0.105	0.117	0.0958	0.0729	0.065	0.63	0.56	0.503	0.126	0.113					
